Patent US20030064434A1, “Novel G Protein-coupled receptor, GAVE1” (Aventis Pharmaceuticals, Inc., priority 2001, published 2003)

Experiments:
GAVE1 (Homo sapiens) = assay: FLIPR assay, change in fluorescence of GAVE1 expressing CHO cells; assay type: cell-based; conditions: CHO cells expressing GAVE1, increasing amounts of ligand; untransformed CHO cells show control level
Text: To screen for agonists of human GAVE1, hGAVE1 is artificially coupled to a Gq signaling package. Activation of the Gq mechanism stimulates the release of Ca^2+ from sarcoplasmic reticulum vesicles within the cell. The Ca^2+ is released into the cytoplasm where it can be detected using Ca^2+ chelating dyes. A Fluorometric Imaging Plate Reader or FLIPR® apparatus (Molecular Devices) is used to monitor any resulting changes in fluorescence. The activity of an agonist is reflected by an increase in fluorescence.
CHO-K1 cells expressing hGAVE1 are pre-engineered to express an indiscriminate form of Gq protein (Gα16). […]
A compound library containing possible agonists will be tested at 10 μM concentration in physiological salt buffer. Changes in fluorescence are measured for 10 seconds prior to compound addition. After the addition of the compound, fluorescence is measured every second for the first minute followed by exposures taken every six seconds for a total experimental analysis time of three minutes. […] The maximum fluorescence changes for the first 80 scans is recorded as a measure of agonist activity and compared to the maximum fluorescence change induced by 10 μM ATP (Sigma A9062).

[1] = test system: GAVE1 expression in rat cardiac myocytes; assay: Northern blot of GAVE1 RNA levels in cardiomyocytes exposed to phenylephrine; assay type: cell-based; conditions: rat cardiac myocytes stimulated 48 hours with 10^-5 M phenylephrine; compared to control (untreated) or vehicle-treated myocytes
Protocol: FIG. 7 is a computer representation of a Northern blot depicting GAVE1 RNA levels of cardiomyocytes expressing GAVE1 exposed to medium, vehicle and vehicle containing phenylephrine.
Northern blot analysis is performed on RNA derived from several human tissue samples to determine whether the tissues express the hGAVE1 receptor gene. The probe used is P^32-labeled hGAVE1 cDNA.
P32-labeled hGAVE1 cDNA is prepared as follows. Twenty-five ng hGAVE1 cDNA prepared as described above is resuspended to 45 μl of 10 mM Tris-HCl, pH 7.5; 1 mM EDTA in a microfuge tube and heated at 95° C. for 5 minutes. The tube then is chilled on ice for another 5 minutes. Following chilling, the mixture contained in the tube is resuspended with the 45 μl GAVE1 cDNA and buffer as described above and mixed with RTS Rad Prime Mix (supplied with the RTS Rad Prime DNA-labeling System) (Life Technologies, Catalog No. 10387-017). Five μl of P^32-labeled α-dCTP, specific activity: 3000 Ci/mM, (Amersham, AA0005) is added while mixing gently but thoroughly. The resulting mixture is incubated at 37° C. for 10 minutes. Incubation is stopped by the addition of 5 μl of 0.2 M EDTA, pH 8.0. Incorporation of the radioactive alpha-dCTP into the hGAVE1 cDNA is evaluated by taking a 5 μl aliquot of the mixture and counting the radioactivity. […]

Sequence of GAVE1 (Homo sapiens) (P21453 whole entry): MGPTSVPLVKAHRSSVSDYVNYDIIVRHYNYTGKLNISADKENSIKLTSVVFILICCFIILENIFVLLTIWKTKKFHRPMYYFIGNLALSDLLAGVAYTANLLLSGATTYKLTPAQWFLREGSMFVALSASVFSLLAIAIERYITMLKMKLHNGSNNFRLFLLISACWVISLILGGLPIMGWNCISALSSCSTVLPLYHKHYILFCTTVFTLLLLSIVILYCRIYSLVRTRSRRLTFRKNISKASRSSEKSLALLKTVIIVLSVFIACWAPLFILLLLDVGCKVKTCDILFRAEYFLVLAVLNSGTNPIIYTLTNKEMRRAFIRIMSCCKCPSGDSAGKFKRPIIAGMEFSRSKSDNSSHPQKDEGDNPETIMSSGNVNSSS

## CCCCCCCCCCCCC/C=C/[C@@H](O)[C@@H](N)COP(=O)(O)O [S1P, sphingosine-1-phosphate]
GAVE1 (Homo sapiens)
  change in fluorescence (GAVE1 activity): positive correlation of activity with increasing amounts of ligand

## CNC[C@H](O)c1cccc(O)c1 [phenylephrine]
[1]
  level of GAVE1 expression: up-regulated several-fold
